Data as given in PubChem BioAssay (NCI).
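Exposure lasted 48 hours, with cells grown in 96-well plates and compounds tested at five concentrations. GI50 marks 50% less growth. TGI denotes the concentration required for complete inhibition of growth.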

Key:
Assay in all cases: inhibition of tumour cell growth, NCI panel, 48 h; in the data active = GI50 below about 0.43 µM; inactive = the rest
HT29 colon = tested on: HT29 colon
OVCAR-3 ovarian = tested on: OVCAR-3 ovarian
DLD-1 colon = tested on: DLD-1 colon
NCI-H522 lung = tested on: NCI-H522 lung
MOLT-4 leukemia = tested on: MOLT-4 leukemia
HOP-18 NSCLC = tested on: HOP-18 NSCLC
HOP-62 NSCLC = tested on: HOP-62 NSCLC
SF-268 CNS = tested on: SF-268 CNS
CCRF-CEM leukemia = tested on: CCRF-CEM leukemia
LXFL 529 NSCLC = tested on: LXFL 529 NSCLC
XF 498 CNS = tested on: XF 498 CNS
SNB-75 CNS = tested on: SNB-75 CNS
SF-295 CNS = tested on: SF-295 CNS
ACHN renal = tested on: ACHN renal
MALME-3M melanoma = tested on: MALME-3M melanoma
UO-31 renal = tested on: UO-31 renal
KM12 colon = tested on: KM12 colon
TK-10 renal = tested on: TK-10 renal
UACC-257 melanoma = tested on: UACC-257 melanoma
SK-MEL-28 melanoma = tested on: SK-MEL-28 melanoma
SF-539 CNS = tested on: SF-539 CNS
HL-60(TB) leukemia = tested on: HL-60(TB) leukemia
SR leukemia = tested on: SR leukemia
SK-MEL-2 melanoma = tested on: SK-MEL-2 melanoma
LOX IMVI melanoma = tested on: LOX IMVI melanoma
OVCAR-5 ovarian = tested on: OVCAR-5 ovarian
HCT-15 colon = tested on: HCT-15 colon
OVCAR-8 ovarian = tested on: OVCAR-8 ovarian
DMS 114 small cell lung = tested on: DMS 114 small cell lung
SW-620 colon = tested on: SW-620 colon
NCI-H226 lung = tested on: NCI-H226 lung
SNB-78 CNS = tested on: SNB-78 CNS
HCC-2998 colon = tested on: HCC-2998 colon
KM20L2 colon = tested on: KM20L2 colon
IGROV1 ovarian = tested on: IGROV1 ovarian
NCI-H23 lung = tested on: NCI-H23 lung
SK-MEL-5 melanoma = tested on: SK-MEL-5 melanoma
NCI-H460 lung = tested on: NCI-H460 lung
M14 melanoma = tested on: M14 melanoma
HCT-116 colon = tested on: HCT-116 colon
SNB-19 CNS = tested on: SNB-19 CNS
CAKI-1 renal = tested on: CAKI-1 renal
RXF-631 renal = tested on: RXF-631 renal
A549 NSCLC = tested on: A549 NSCLC
UACC-62 melanoma = tested on: UACC-62 melanoma
M19-MEL melanoma = tested on: M19-MEL melanoma
786-0 renal = tested on: 786-0 renal
EKVX NSCLC = tested on: EKVX NSCLC
RPMI-8226 leukemia = tested on: RPMI-8226 leukemia
U251 CNS = tested on: U251 CNS
OVCAR-4 ovarian = tested on: OVCAR-4 ovarian
K-562 leukemia = tested on: K-562 leukemia
SK-OV-3 ovarian = tested on: SK-OV-3 ovarian
COLO 205 colon = tested on: COLO 205 colon

CC[O-].CC[O-].CN(C)c1ccc([O-])cc1.CN(C)c1ccc([O-])cc1.[Ti+4]
49.5 µM: TGI (HT29 colon)
inactive: GI50 (HT29 colon) 21.3 µM | GI50 (OVCAR-3 ovarian) 56.1 µM | GI50 (DLD-1 colon) 61.4 µM | GI50 (NCI-H522 lung) 52.3 µM | GI50 (MOLT-4 leukemia) 32.4 µM | GI50 (HOP-18 NSCLC) > 100 µM | GI50 (HOP-62 NSCLC) > 100 µM | GI50 (SF-268 CNS) 36.4 µM | GI50 (CCRF-CEM leukemia) 36.4 µM | GI50 (LXFL 529 NSCLC) 68.2 µM | GI50 (XF 498 CNS) > 100 µM | GI50 (SNB-75 CNS) > 100 µM | GI50 (SF-295 CNS) 48.7 µM | GI50 (ACHN renal) 40.9 µM | GI50 (MALME-3M melanoma) 82.9 µM | GI50 (UO-31 renal) > 100 µM | GI50 (KM12 colon) 29.3 µM | GI50 (TK-10 renal) > 100 µM | GI50 (UACC-257 melanoma) 28.7 µM | GI50 (SK-MEL-28 melanoma) > 100 µM | GI50 (SF-539 CNS) 30.8 µM | GI50 (HL-60(TB) leukemia) 46.4 µM | GI50 (SR leukemia) 72.2 µM | GI50 (SK-MEL-2 melanoma) > 100 µM | GI50 (LOX IMVI melanoma) 38.6 µM | GI50 (OVCAR-5 ovarian) > 100 µM | GI50 (HCT-15 colon) 61.4 µM | GI50 (OVCAR-8 ovarian) 36.8 µM | GI50 (DMS 114 small cell lung) 35 µM | GI50 (SW-620 colon) 70.5 µM | GI50 (NCI-H226 lung) > 100 µM | GI50 (SNB-78 CNS) > 100 µM | GI50 (HCC-2998 colon) 53.6 µM | GI50 (KM20L2 colon) 61.7 µM | GI50 (IGROV1 ovarian) > 100 µM | GI50 (NCI-H23 lung) 70.6 µM | GI50 (SK-MEL-5 melanoma) 99.8 µM | GI50 (NCI-H460 lung) 27.7 µM | GI50 (M14 melanoma) 98.4 µM | GI50 (HCT-116 colon) 52.5 µM | GI50 (SNB-19 CNS) > 100 µM | GI50 (CAKI-1 renal) > 100 µM | GI50 (RXF-631 renal) 66.1 µM | GI50 (A549 NSCLC) 54.4 µM | GI50 (UACC-62 melanoma) > 100 µM | GI50 (M19-MEL melanoma) 39.3 µM | GI50 (786-0 renal) 32 µM | GI50 (EKVX NSCLC) > 100 µM | GI50 (RPMI-8226 leukemia) 95.7 µM | GI50 (U251 CNS) 39 µM | GI50 (OVCAR-4 ovarian) > 100 µM | GI50 (K-562 leukemia) 29.1 µM | GI50 (SK-OV-3 ovarian) > 100 µM | GI50 (COLO 205 colon) 58.4 µM
75 µM: TGI (NCI-H460 lung)
> 100 µM: TGI (OVCAR-3 ovarian) | TGI (DLD-1 colon) | TGI (NCI-H522 lung) | TGI (MOLT-4 leukemia) | TGI (HOP-18 NSCLC) | TGI (HOP-62 NSCLC) | TGI (SF-268 CNS) | TGI (CCRF-CEM leukemia) | TGI (LXFL 529 NSCLC) | TGI (XF 498 CNS) | TGI (SNB-75 CNS) | TGI (SF-295 CNS) | TGI (ACHN renal) | TGI (MALME-3M melanoma) | TGI (UO-31 renal) | TGI (KM12 colon) | TGI (TK-10 renal) | TGI (UACC-257 melanoma) | TGI (SK-MEL-28 melanoma) | TGI (SF-539 CNS) | TGI (HL-60(TB) leukemia) | TGI (SR leukemia) | TGI (SK-MEL-2 melanoma) | TGI (LOX IMVI melanoma) | TGI (OVCAR-5 ovarian) | TGI (HCT-15 colon) | TGI (OVCAR-8 ovarian) | TGI (DMS 114 small cell lung) | TGI (SW-620 colon) | TGI (NCI-H226 lung) | TGI (SNB-78 CNS) | TGI (HCC-2998 colon) | TGI (KM20L2 colon) | TGI (IGROV1 ovarian) | TGI (NCI-H23 lung) | TGI (SK-MEL-5 melanoma) | TGI (M14 melanoma) | TGI (HCT-116 colon) | TGI (SNB-19 CNS) | TGI (CAKI-1 renal) | TGI (RXF-631 renal) | TGI (A549 NSCLC) | TGI (UACC-62 melanoma) | TGI (M19-MEL melanoma) | TGI (786-0 renal) | TGI (EKVX NSCLC) | TGI (RPMI-8226 leukemia) | TGI (U251 CNS) | TGI (OVCAR-4 ovarian) | TGI (K-562 leukemia) | TGI (SK-OV-3 ovarian) | TGI (COLO 205 colon)
